test: recombinant barcode read abundance after kanamycin selection (control-corrected) (log10(CPM+1)); higher = more efficient recombination; sequences stand for … in AGTGCAGAGAAAATCGGCCAGTTTTCTCTGCCTGCAGTCCGCATGCCGT…AGATTTATGCAGCGGACTGCCTTTCTCCCAAAGTGATAAACCGGACAGTATCATGGACCGGTTTTCCCGGTAATCCGTATTTGCAAGGTTGGTTTCACT; site = the 11-nt target
Outline: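 Recombination efficiency was calculated from barcode counts at recombinant junctions, normalized to counts per million, averaged and corrected by the control. Each value is given as log10(CPM+1). The constructs were Gibson-cloned oligos (promoter, target, barcode, J23119-driven first 104 bridge RNA bases) in a vector with the remaining 73 bp and a T7-inducible recombinase, co-electroporated into E. coli with a donor plasmid and plated in duplicate on chloramphenicol/ampicillin LB agar (control) or chloramphenicol/ampicillin/kanamycin with 0.1 mM IPTG.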
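Further: IS621 recombinase and bridge RNA in Escherichia coli cells.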

Sequence	recombinant barcode read abundance (log10)
ATCGTACCTTGGGTTCTAACCTGTTGCTG (site ATCCTACCTAA)	0.167
GAGACGACTTGGGTTCTAACCTGTTGCCG (site GAGACGACTCG)	1.61
GTCGAGTCTTGGGTTCTAACCTGTTGCCT (site GTCGAGTCTAG)	1.61
TGGTATTCTTGGGTTCTAACCTGTTGCCT (site TGGTATGCTAG)	0.11
TAGCAATCTTGGGTTCTAACCTGTTGCTA (site GTCGTTACTAG)	0.0938
AAGGGGTCTTGGGTTCTAACCTGTTGCCT (site AAGGGGTCTAG)	2.93
TTAACGGCTTGGGTTCTAACCTGTTGCCT (site TTAACGGCTAG)	0.556
TAGTTTCCTTGGGTTCTAACCTGTTGCGT (site TAGTGTCCTAC)	0.206
GTAACCTCTTGGGTTCTAACCTGTTGCCC (site GTAACCTCTAG)	0.928
GCTCAGTCTTGGGTTCTAACCTGTTGCCT (site GCTCAGCCTAG)	0.645
TCAGTATCTTGGGTTCTAACCTGTTGCCT (site TCAGAATCTAG)	0.145
GGGGACCCTTGGGTTCTAACCTGTTGCGT (site GGGGACCCTGC)	1.44
TAGCACACTTGGGTTCTAACCTGTTGCGG (site TAGCTCACTCC)	0.00842
TCTAATCCTTGGGTTCTAACCTGTTGCAT (site TCTAAGCCTAT)	0.0992
TAGGCTCCTTGGGTTCTAACCTGTTGCCT (site TAGGCTCCTAG)	0
CAGAGATCTTGGGTTCTAACCTGTTGCTT (site CAAAGATCTAA)	0.328
TAGGCCACTTGGGTTCTAACCTGTTGCCT (site TAGGCCACTAT)	0
TATGAGGCTTGGGTTCTAACCTGTTGCCT (site TATGTGGCTAG)	0.162
ACGAGCGCTTGGGTTCTAACCTGTTGCCT (site ACGAACGCTAG)	0.132
CAAAGACCTTGGGTTCTAACCTGTTGCGG (site AAAATACCTCC)	0.14
CTCGGAGCTTGGGTTCTAACCTGTTGCCG (site CTCGGAGCTCG)	0.596
TCGTGCCCTTGGGTTCTAACCTGTTGCTT (site TCGTGCCCTCA)	1.5

Sequence	recombinant barcode read abundance (log10)
GTAGGGACTTGGGTTCTAACCTGTTGCCG (site GTAGGGACTCG)	2.47
ACCGCTCCTTGGGTTCTAACCTGTTGCCT (site AGCGCTCCTAG)	0.0225
TAAGGTCCTTGGGTTCTAACCTGTTGCTT (site AGGTCAACTCG)	0.224
CGGCGTCCTTGGGTTCTAACCTGTTGCCT (site CGGCGTCCTAG)	1.24
GGTCAGTCTTGGGTTCTAACCTGTTGCGG (site TAGTTTACTTA)	0.0859
GGAATGCCTTGGGTTCTAACCTGTTGCCT (site GGAATTCCTAG)	0.0966
GGGATACCTTGGGTTCTAACCTGTTGCTA (site GGGATACCTTA)	1.37
CCTTTCACTTGGGTTCTAACCTGTTGCCT (site CCTTTCACTAG)	0.228
GGGGTCCCTTGGGTTCTAACCTGTTGCTT (site CTCAAAGCTTC)	0.0621
GTAATTACTTGGGTTCTAACCTGTTGCCT (site TACGCACCTTC)	0.0355
TCGCACTCTTGGGTTCTAACCTGTTGCTA (site TCGCACACTTA)	0.262
CCGGGTTCTTGGGTTCTAACCTGTTGCCT (site CCGGGTTCTAG)	1.79
GTGAGAACTTGGGTTCTAACCTGTTGCCA (site CGTGACCCTCC)	0.0895
ATAGACCCTTGGGTTCTAACCTGTTGCCT (site TTAGACCCTAG)	1.49
TCCCATACTTGGGTTCTAACCTGTTGCAT (site AGTGGACCTGG)	0.2
CTTAAATCTTGGGTTCTAACCTGTTGCCT (site CTTAAATCTAG)	0.0558
GGCACTACTTGGGTTCTAACCTGTTGCCT (site GGCACCACTAG)	0.716
AAGCTGCCTTGGGTTCTAACCTGTTGCCT (site GAGCTGCCTAA)	0.049
TCCCATTCTTGGGTTCTAACCTGTTGCCT (site TCCCATGCTAG)	0.0488
TGCCCCGCTTGGGTTCTAACCTGTTGCCT (site ACTTAGTCTGA)	0.341
GCTTTACCTTGGGTTCTAACCTGTTGCCT (site CCTTTACCTAG)	0.019
TAATGTACTTGGGTTCTAACCTGTTGCCT (site TAATGAACTAG)	0.125

Sequence	recombinant barcode read abundance (log10)
ATCGCTTCTTGGGTTCTAACCTGTTGCCT (site AACGCTTCTAG)	0.246
AAGCGTGCTTGGGTTCTAACCTGTTGCCT (site AAGCGTCCTAG)	0.197
CATCCGCCTTGGGTTCTAACCTGTTGCCT (site CATCCGACTAG)	0.0105
CCGTAAACTTGGGTTCTAACCTGTTGCCT (site CCGTAAACTAG)	0.35
AGAGCTCCTTGGGTTCTAACCTGTTGCGG (site AGTGCTCCTCC)	0.196
AGGACAACTTGGGTTCTAACCTGTTGCCT (site AGTACAACTAG)	0.181
GCTTCTTCTTGGGTTCTAACCTGTTGCCT (site GATTCTTCTAG)	0.398
GCTCGTGCTTGGGTTCTAACCTGTTGCCT (site GCTCGTGCTAG)	1.1
GTCGTACCTTGGGTTCTAACCTGTTGCCT (site GTCATACCTAG)	0.348
CAAAGGCCTTGGGTTCTAACCTGTTGCCT (site CAATGGCCTAG)	0.157
CGGTGTCCTTGGGTTCTAACCTGTTGCTA (site CGGCGTCCTTA)	0.586
GAAAACTCTTGGGTTCTAACCTGTTGCCT (site AGGTCTACTCC)	0.104
TCCCACTCTTGGGTTCTAACCTGTTGCCT (site TCTCACTCTAG)	0.0682
CTCCGTCCTTGGGTTCTAACCTGTTGCCT (site CTGCGTCCTAG)	0.252
GCTCAGTCTTGGGTTCTAACCTGTTGCCT (site GCTCAGGCTAG)	0.218
GACGAGTCTTGGGTTCTAACCTGTTGCTA (site GGCGAGTCTTA)	0.154
GAACCTACTTGGGTTCTAACCTGTTGCCA (site GGACCTACTTG)	0.0691
TCTAACCCTTGGGTTCTAACCTGTTGCAT (site TCTAAGCCTAT)	0.028
CCGCACACTTGGGTTCTAACCTGTTGCCT (site TCGCACACTAG)	0.305
GAACACACTTGGGTTCTAACCTGTTGCCG (site GCACACACTCA)	0.794
TATGAGGCTTGGGTTCTAACCTGTTGCCT (site TATGGGGCTAG)	0.0447
CGAGGGGCTTGGGTTCTAACCTGTTGCCT (site CGAGGGACTAG)	0.127

— the supplement of paper PMC11208160
